One compound from patent US9000017B2, “Combinations of imazalil and silver compounds” (Janssen Pharmaceutica NV, priority 2006, dated 2015) can be followed below.

The structures appear in SMILES notation. Where two headings read alike, the source gives them in different places.

What all share (assay): Poison Plate Assay
Common to all, as to assay type: cell-based

One assay has as its system Penicillium purpurogenum. Particulars: Penicillium purpurogenum CBS 170.60, ppm total active ingredient, PDA, 22° C., two weeks. The method, then:
(§1) [table] […] [table] MIC values (minimum inhibitory concentration in ppm total active ingredient) were noted and synergy was calculated using the Synergy Index method described by Kull et al. (Kull, […], and R. L. Mayer (1961) “Mixtures of quaternary ammonium compounds and long-chain fatty acids as antifungal agents” Applied Microbiology 9: 538-541; also see Zwart Voorspuij, A. J., and […] (1957) “Some aspects of the notions additivity, synergism and antagonism in the simultaneous activity of two antibacterial agents in vitro” Arch. intern. […] Steinberg, D. C. […] Petrocci, H. A. Green, and J. J. Merianos (1977) “Antimicrobial composition” U.S. Pat. […] MIC), • Qa is the concentration of compound A in ppm, in the mixture, which produced an end point (e.g. MIC), • QB is the concentration of compound B in ppm, acting alone, which produced an end point (e.g. MIC), • Qb is the concentration of compound B in ppm, in the mixture, which produced an end point (e.g. MIC). […] When the SI is equal to 1.0, additivity is indicated.

For a further assay, the system named is Pseudomonas aeruginosa. Particulars: Pseudomonas aeruginosa NCIB 8295, ppm total active ingredient, Tryptose Agar, 27° C., one week. The method, then: as §1
The test system of a further assay is Rhodoturula rubra. The following applies: 336 h, Rhodoturula rubra B 52183, ppm total active ingredient, PDA, 22° C., two weeks, read-out: MIC-values in ppm (minimum inhibitory concentration). As for the experimental part:
as §1

[1] abbreviates: imazalil with silver perchlorate, label = % imazalil + % silver perchlorate.

In the case of `C=CCOC(Cn1ccnc1)c1ccc(Cl)cc1Cl` (stereo not drawn) [imazalil], the MIC was 158 µg/mL in the assay with Penicillium purpurogenum (CBS170, 336 h, imazalil with silver nitrate, label = % imazalil + % silver nitrate, read-out: MIC-values in ppm (minimum inhibitory concentration)); 667 µg/mL in the assay on Pseudomonas aeruginosa (NCIB8295, 168 h, imazalil with silver nitrate, label = % imazalil + % silver nitrate, read-out: MIC-values in ppm (minimum inhibitory concentration)); 158 µg/mL with Rhodoturula rubra (imazalil with silver nitrate, label = % imazalil + % silver nitrate); 119 µg/mL with Rhodoturula rubra (setting [1]). For the same compound, the entries for the “MIC-values in ppm (minimum inhibitory concentration)” value with Penicillium purpurogenum (setting [1]) and in the assay with Pseudomonas aeruginosa (setting [1]) were 158 ppm and 667 ppm, respectively.
